Laboratory results: PMC9780703, “Unconventional interactions of the TRPV4 ion channel with beta-adrenergic receptor ligands” (Life Science Alliance, 2022)
Counter-ions that a name gives are not always drawn. Like-named read-outs stand apart in the source and are kept apart here.

Legend:
Assay type in all cases: cell-based
TRPV4 [1] = biological target: T1, TRPV4 (Homo sapiens, UniProt Q9HBA0); assay: outside-out patch clamp of HEK293 cells expressing hTRPV4, activation dose-response (KD from Hill fit)
T1 construct: full-length wild type, transiently transfected HEK293, outside-out patches
T1 sequence (Q9HBA0 whole entry): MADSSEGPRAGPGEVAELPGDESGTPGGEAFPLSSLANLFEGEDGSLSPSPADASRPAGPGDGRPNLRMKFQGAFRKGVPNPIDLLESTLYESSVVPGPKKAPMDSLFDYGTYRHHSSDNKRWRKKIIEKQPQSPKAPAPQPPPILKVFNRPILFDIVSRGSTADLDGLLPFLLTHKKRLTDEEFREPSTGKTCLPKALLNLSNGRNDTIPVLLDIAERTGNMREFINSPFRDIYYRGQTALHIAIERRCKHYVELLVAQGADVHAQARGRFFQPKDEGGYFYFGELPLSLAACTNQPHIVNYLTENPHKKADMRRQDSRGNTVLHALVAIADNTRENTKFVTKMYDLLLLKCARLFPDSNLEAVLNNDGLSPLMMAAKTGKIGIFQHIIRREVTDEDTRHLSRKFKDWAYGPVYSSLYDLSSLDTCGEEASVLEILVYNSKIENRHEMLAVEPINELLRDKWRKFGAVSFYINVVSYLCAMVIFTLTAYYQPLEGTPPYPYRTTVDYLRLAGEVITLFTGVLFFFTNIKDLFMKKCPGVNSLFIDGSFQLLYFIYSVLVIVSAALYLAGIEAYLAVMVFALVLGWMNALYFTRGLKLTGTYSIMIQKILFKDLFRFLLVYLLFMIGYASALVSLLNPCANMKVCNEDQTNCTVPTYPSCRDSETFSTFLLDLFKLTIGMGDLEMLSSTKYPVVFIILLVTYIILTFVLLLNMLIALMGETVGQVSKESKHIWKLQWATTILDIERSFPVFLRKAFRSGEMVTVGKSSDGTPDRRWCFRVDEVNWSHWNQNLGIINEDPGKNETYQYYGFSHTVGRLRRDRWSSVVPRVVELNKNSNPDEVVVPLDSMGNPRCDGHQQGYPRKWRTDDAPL

TRPV4 [2] = biological target: T1, TRPV4; assay: outside-out patch clamp of HEK293 cells expressing hTRPV4, % inhibition of GSK-activated current at […]
TRPV4 [3] = biological target: T1, TRPV4; assay: outside-out patch clamp of HEK293 cells expressing hTRPV4, dose-response, single-channel recordings and site-directed mutagenesis (apparent KD from Hill fit)
TRPV4 [4] = biological target: T1, TRPV4; assay: outside-out patch clamp of HEK293 cells expressing hTRPV4, inhibition of GSK-activated currents, dose-response (apparent KD from Hill fit)
TRPV4 [5] = biological target: T1, TRPV4; assay: outside-out patch clamp of HEK293 cells expressing hTRPV4, % inhibition of GSK-activated current at […]; remark: listed apart in the source
TRPV4 [6] = biological target: T1, TRPV4; assay: as above; remark: listed apart in the source
TRPV4 [7] = biological target: T1, TRPV4; assay: as above; remark: listed apart in the source
TRPV4 [8] = biological target: T1, TRPV4; assay: as above; remark: listed apart in the source

CC(C)C[C@H](NC(=O)c1cc2ccccc2s1)C(=O)N1CCN(C(=O)[C@H](CO)NS(=O)(=O)c2ccc(Cl)cc2Cl)CC1 [GSK, GSK1016790A]
Kd (TRPV4 [1]): 0.101 µM

CC(C)(C)NCC(O)c1cc(Cl)c(N)c(Cl)c1 (stereo not drawn) [clenbuterol, 4-amino-α-[t-butylaminomethyl]-3,5-dichlorobenzyl alcohol hydrochloride]
inhibition at 500 µM (TRPV4 [2]): 71.7%

CC(C)(C)NCC(O)c1ccc(O)c(CO)c1 (racemic) [salbutamol, α1-[(tert-butylamino)methyl]-4-hydroxy-1,3-benzenedimethanol hemisulfate salt]
Kd (TRPV4 [3]): 81.3 µM

Cc1ccc(OC[C@H](O)[C@@H](C)NC(C)C)c2c1CCC2 (relative stereo) [ICI, [2R,3R]-rel-3-isopropylamino-1-[7-methylindan-4-yloxy]-butan-2-ol hydrochloride]
Kd (TRPV4 [4]): 3.9 µM

CC(C)NCC(O)c1ccc(O)c(O)c1 (centres unmarked) [isoprenaline, 1-[3′,4′-dihydroxyphenyl]-2-isopropylaminoethanol hydrochloride]
inhibition at 500 µM (TRPV4 [5]): 51.6%

CC(C)(C)NC[C@H](O)c1ccc(O)c(CO)c1 [levalbuterol]
inhibition at 500 µM (TRPV4 [6]): 42.6%

CC(C)NCC(O)c1cc(O)cc(O)c1 (stereo not drawn) [metaproterenol, α-[(isopropylamino)methyl]-3,5-dihydroxybenzyl alcohol hemisulfate salt]
inhibition at 500 µM (TRPV4 [7]): 51.7%

CC(C)(C)NCC(O)c1cc(O)cc(O)c1 (centres unmarked) [terbutaline, 5-[2-[(1,1-dimethylethyl)amino]-1-hydroxyethyl]-1,3-benzenediol hemisulfate salt]
inhibition at 500 µM (TRPV4 [8]): 54.4%
